Assay results from a melting point compilation (Tetko et al.; mined from patent text by program, amines drawn as free bases though some values may be those of a salt).

Row | SMILES | melting point [°C]
1 | CCCOc1cc(CCCC2OC(=O)NC2=O)ccc1OCc1nc(-c2ccccc2)oc1C (stereo not given) | 119 to 120
2 | COc1ccc2cc(C(=O)C(C)(C)c3ccccc3)oc2c1 | 93 to 95
3 | C[C@@H](Oc1ccc(-c2ccccc2)cc1)[C@H](O)CCc1cccnc1 | 98 to 99.5
4 | CCOC(=O)CSc1n[nH]c(=S)[nH]1 | 134 to 136
5 | Cc1c(C(N)=O)nnn1Cc1c(F)cccc1F | 208 to 210
6 | COC(=O)CCC(CCCCNS(=O)(=O)c1ccc(Cl)cc1)CCCc1cccnc1 (stereo not given) | 81 to 82
7 | Cc1ccc(-c2ccc3c(c2)C=C(C(=O)Nc2ccc(CN(C)C4CCOCC4)cc2)CCO3)cc1 | 162 to 163
8 | CCCCCCCCCCCCCCCCCCNC(=O)NCCCCCCN | 123 to 168
9 | C1=CC(c2ccccc2)Nc2ccccc21 (stereo not given) | 75
10 | O=c1c2c(Cc3cccc(C(F)(F)F)c3)n[nH]c2c2cccnc2n1-c1ccccc1 | 303 to 305
11 | CNC(=O)Nc1ccc(Cl)c(Cl)c1 | 156
12 | CC12CCC(=O)C=C1CCC1C2C(O)CC2(C)C1CCC2(O)C(=O)COC(=O)CC(CC(=O)O)c1ccc(O)cc1 (stereo not given) | 98 to 110
13 | COc1ccc(CCNC=C2C(=O)Nc3cc(OC)c(OC)cc32)cc1OC | 164 to 166
14 | COCCOC(=O)C1=C(C)NC(C)=C(C(=O)OCCOC)C1c1ccccc1OC(F)F | 94 to 95
15 | NC(=O)Cc1ccc([N+](=O)[O-])c(C(=O)c2ccc(Cl)cc2)c1 | 212
16 | CNc1ncnc(N)c1N | 180 to 185
17 | O=C(c1ccc(O)cc1)c1ccc(OCCBr)cc1 | 136 to 138
18 | COc1ccc(Oc2ccc(C(=O)N(C(C)C)C3CCCCC3)cc2)cc1 | 81.7
19 | CCn1c(C(O)(Cc2ccccc2)Cc2ccccc2)nc(-c2ccncc2)c1-c1ccc(Cl)cc1 | 116 to 117
20 | CCCCOc1ccccc1C(=O)C=Cc1cc(OC)cc(OC)c1 | 69.5 to 70.1
21 | COc1cc(NC(=O)C#Cc2ccc(C(F)(F)F)cc2Cl)ccc1OCCN1CCC(OC)CC1 | 195 to 197
22 | OCc1cccc(Nc2nc(Oc3ccccc3)nc(Oc3ccc(Cl)cc3)n2)c1 | 110 to 114
23 | Cc1cncc(Oc2cccc(NC(=O)N3CCc4c(cnc5[nH]nc(Br)c45)C3)c2)n1 | 221 to 223
24 | CC(C)C[C@H](NC(=O)Nc1cccc2ccccc12)C(=O)N[C@H]1CCOC1=O | 213 to 214

Row | SMILES | melting point [°C]
25 | CC(C)n1nc(-c2c(OCC(=O)NC3CC3)nc(N)nc2-c2ccccc2)ccc1=O | 87 to 92
26 | COc1cc(C(Cn2ccnc2)Sc2ccc(C(=O)O)cc2)cc(OC)c1OC (stereo not given) | 94 to 97
27 | CC1(C)c2ccccc2-c2ccc(C3c4ccc(-c5ccc(-c6ccc(C=C(C#N)C(=O)O)s6)s5)c5c4C(CCC5)N3c3ccccc3)cc21 (stereo not given) | 251
28 | O=C(Cn1cnc2ccccc21)c1ccc(Cl)cc1Cl | 130 to 132
29 | COc1cc(-c2ccc(NCc3ccccc3)nn2)ccc1OC(F)F | 136
30 | CC(C)Cn1cnc2c(N)nc3c(c21)NCCC3 | 222 to 226
31 | O=C(CCCCC(=O)Oc1ccc(C(=O)OCc2ccccc2)cc1)Oc1ccc(C(=O)OCc2ccccc2)cc1 | 93 to 93.5
32 | CCOC(=O)c1cc2c(C)ccc(NS(=O)(=O)c3cccs3)c2[nH]1 | 180 to 181
33 | COc1cc(CBr)cc(OC)c1 | 70 to 72
34 | COC(=O)c1ccc(N2C(=O)CCC2(CN=[N+]=[N-])COC(=O)c2ccccc2)c([N+](=O)[O-])c1 (stereo not given) | 214 to 215
35 | O=Cc1coc2ccc(Br)cc2c1=O | 186 to 188
36 | COC(=O)CCCC(C)(C)c1cc(O)c(C(C)(C)C)cc1O | 136 to 139
37 | C=CCOc1c(Cl)cc(C2=NNC(=O)CC2)cc1Cl | 137
38 | Cn1nc(-c2cc(O)c(C#N)cc2F)c(Cl)c1C(F)(F)F | 151
39 | CC(C)(C)c1cnc(-c2nn(-c3ccc(F)cc3F)c3c2C2CCC3C2)o1 (stereo not given) | 58 to 60
40 | Cc1csc(C2=CCN(CCCC(O)c3ccc(F)cc3)CC2)n1 (stereo not given) | 89 to 90.5
41 | O=C(O)CCCn1ccc(=O)c(OCc2ccccc2)c1C(O)c1ccccc1 (stereo not given) | 205 to 210
42 | CC1(C)C(=O)N(c2ccc(C#N)c(C(F)(F)F)c2)C(=O)N1CCCCO[N+](=O)[O-] | 74 to 75
43 | COC(=O)c1nc(NC(=O)CCCOc2cccc(CN3CCCCC3)c2)n(C)n1 | 108 to 110
44 | Clc1ncnc2c1ncn2C1CCCCO1 (stereo not given) | 70 to 71
45 | COc1ccc(C(=O)c2c(N)sc3c2CCN(C(=O)c2ccccc2)C3)cc1OC | 143 to 145
46 | COc1cc(OC)nc(Oc2c(Cl)cccc2C(=O)O)n1 | 151 to 152
47 | CC(C)C(=NSN(C)C(=O)Oc1cccc2c1OC(C)(C)C2)Sc1ccccc1 | 104 to 106
48 | CC(C)Cc1cccc(CCCn2c(=O)[nH]c3cc(Cl)cc(Cl)c3c2=O)c1 | 167 to 172

Row | SMILES | melting point [°C]
49 | CCOC(=O)C(C)(C)c1cn2nc(NCCCN3CCC(NC(c4ccccc4)c4ccccc4)CC3)ccc2n1 | 115 to 117
50 | CCOC(=O)c1cn(CC)c2nc(N3CCN(C(C)=O)CC3)ncc2c1=O | 208 to 210
51 | Cc1cc(F)c(F)cc1O | 68 to 70
52 | CS(=O)(=O)c1ccc(-c2[nH]c(CO)nc2-c2ccc(F)cc2)cc1 | 115 to 117
53 | Cc1c(O)cc2c(c1C)NCC2 | 164 to 167
54 | O=C(O)c1cn(C2CC2)c2c(OC(F)F)c(F)c(F)cc2c1=O | 202 to 207
55 | CCC12CCC3=C(CCc4cc(O)ccc43)C1CCC2=O (stereo not given) | 235 to 239
56 | CC(C)(C#N)c1ccc(C(=O)Nc2cn3cc(-n4ccnc4)ccc3n2)cc1 | 241 to 244
57 | Nc1cccc(S(=O)(=O)N2CC=CC2)c1 | 187 to 188
58 | COc1ccc(Oc2c(-c3ccc(S(C)(=O)=O)cc3)cnn(CC(F)(F)F)c2=O)cc1 | 194 to 195
59 | Oc1ccc(-c2nnn(-c3ccc(C(F)(F)F)cc3F)c2Cl)c(Cl)c1 | 150 to 152
60 | Cc1nc(-c2ccc(C(F)(F)F)cc2)sc1C(=O)NCc1ccc(OC(C)(C)C(=O)O)cc1 | 130 to 131
61 | CCC(C)Nc1ccc([N+](=O)[O-])cc1[N+](=O)[O-] (stereo not given) | 53 to 55
62 | O=C(Nc1ccc2nc(CN3CCOCC3)ccc2c1)c1ccc(-c2ccccc2)cc1 | 214 to 215
63 | O=C(N1CCC(c2ccncc2)CC1)N1CCN(S(=O)(=O)c2ccc(Cl)cc2)CC1 | 234 to 235
64 | CCC(COC)Nc1c([N+](=O)[O-])cc(C)c(C)c1[N+](=O)[O-] (single isomer, unassigned; (-)) | 42.5 to 44
65 | COc1ccc(-c2nc(-c3ccccc3)c(N(c3ccccc3)c3ccccc3)s2)cc1 | 152 to 155
66 | COc1cccc(C(=O)c2ccc(OC)c(C(=O)O)c2)c1 | 132
67 | CCOC(=O)CCC1(C)Oc2ccc([N+](=O)[O-])cc2O1 (stereo not given) | 76 to 78
68 | CC(=O)N(C)CC(C)c1ccncc1 (stereo not given) | 83 to 88
69 | COC(=O)Cc1ccc(OCCNC(=O)C2Cc3ccccc3N2S(=O)(=O)c2ccc(-c3cccc(C(F)(F)F)c3)c(C)c2)cc1 (stereo not given) | 60
70 | CN(C(=O)Cl)c1ccc(C(O)(C(F)(F)F)C(F)(F)F)cc1 | 152 to 154
